In experiment [1] the test system is NUGC. The experiment can be described thus: Cytotoxicity against human NUGC at 10 uM after 3 days by MTS reduction assay. It is filed as functional. To be noted: 72 h. A general note: Tetrazolium dyes change colour on reduction, which living cells bring about.
Experiment [2] is described as follows: Cytotoxicity against human HONE1 at 10 uM after 3 days by MTS reduction assay. In kind it is functional. Conditions: HONE1, 72 h.

What is called inhibition is the drop in the measured response relative to a control, in per cent. The low end stands for little suppression, the high end for strong suppression. Regarding `COc1cc2c3c(c4ccc(OC)c(OC)c4c2cc1OC)C[N@@+]1([O-])CCC[C@@H]1C3`, the inhibition at 10 µM in experiment [1] is 94%; in experiment [2] it was 92%.
The like results for `COc1cc2c3c(c4ccc(OC)c(OC)c4c2cc1OC)C[C@H]1CCC[N@+]1([O-])C3` were, in that order, 93% and 87%.
In the case of `COc1cc2c3c(c4cc(OC)c(OC)cc4c2cc1OC)CN1CCC[C@@H]1C3` [TYLOPHORINE], the figures for the inhibition at 10 µM in experiment [1] and in experiment [2] were 85% and 80%, respectively.

The record behind these values is ChEMBL document CHEMBL1141750, “Phenanthroindolizidine alkaloids from the stems of Ficus septica” (2005).
